Laboratory results: article PMC10606064, “2-Aminothiazole-Flavonoid Hybrid Derivatives Binding to Tau Protein and Responsible for Antitumor Activity in Glioblastoma” (International Journal of Molecular Sciences, 2023)

Legend:
U251 glioblastoma cells = test: MTT cell viability assay, U251; assay type: cell-based; conditions: Homo sapiens, U-251, U251, 72 h, mean ± SEM, read-out: IC50 (metabolic activity)
Protocol: (§1) Cells harvested from sub-confluent monolayers were seeded at 15,000 cells per mL in a 96-well microtiter plate (Cambridge Technology, Labège, France) and cultured for 24 h under standard conditions. Standard medium was then replaced by fresh medium containing no drugs or compounds at different concentrations. The surviving cells were quantified after 72 h by the MTT assay, according to the manufacturer’s instructions. Briefly, 20 µL of 3-(4,5-diMethylThiazol-2-yl)-2,5diphenyl Tetrazolium bromide (MTT) solution at 5 mg.mL^−1 was added to cells for 3 h at 37 °C. The supernatant was discarded and replaced by 100 µL of dimethyl sulfoxide to dissolve formazan crystals. The absorbance was then read at 600 nm by spectrophotometry. For all concentrations of a given compound, cell viability was expressed as the percentage of the ratio between the mean absorbance of treated cells and the mean absorbance of untreated cells. Three independent experiments were performed, and the data were expressed as percentage of survival (using the untreated cells as 100%) and subjected to statistical analysis (n = 3). The IC50 was calculated using the Chou and Talalay method.

U87 shCTRL cells = test: MTT cell viability assay, U87 shCTRL (expressing Tau); assay type: cell-based, human; conditions: Homo sapiens; U87 shCTRL, 72 h, MTT; mean ± SEM; read-out: IC50 (metabolic activity)
Protocol: (§2) All cell lines were purchased from ATCC, Gaithersburg, MD, USA. Cells from human glioblastoma (clones U87 wt, HTB-14; U118, HTB-15; U251, HTB-12; U138, HTB-16), neuroblastoma (clone SK-N-SH, HTB-11), and colorectal adenocarcinoma (clone Caco-2, HTB-37) were routinely grown at 37 °C in a humidified atmosphere containing 5% CO2. Cells were maintained by regular passages in complete media supplemented with 10% FBS, 2mM of L-glutamine, 100 U/mL of penicillin, and 50 U/mL of streptomycin (Invitrogen, Paris, France). For U87 wt, U251, U138, and SK-N-SH cells, the medium consisted of EMEM (Lonza, Levallois Perret, France). U118 and Caco-2 lines were maintained in DMEM. The U87 wt-derived lines, U87 shCTRL, and U87 shTau2 cells were continuously maintained in complete EMEM medium supplemented with 0.4 µg/mL of puromycin. The shRNA sequences and the protocol of clone selection and Tau downregulation were previously described in [20]. For Tau expression rescue, the U87 shCTRL and U87 shTau cells were seeded two days prior to experiments at 4.10^5 cells per 60 mm dish in 6 mL of complete medium. Cells were transfected using LipofectAmine 2000 according to Invitrogen instructions and 8 µg EGFP-free plasmid constructs (for U87 shCTRL) and EGFP-hTau40 plasmid constructs (for U87 shTau) were used in total. One day prior to experiments, all cells were plated in a 96-well microtiter plate to prepare for viability assays. Cells were free from mycoplasma as determined by mycoalert tests (Lonza).
as §1

T98G glioblastoma cells = test: MTT cell viability assay, T98G; assay type: cell-based; conditions: Homo sapiens, 72 h, mean ± SEM, read-out: IC50 (metabolic activity)
Protocol: as §1

[1] = target: T1, Tau protein (full-length human Tau, hTau40) (Homo sapiens, UniProt P10636); test: Tau intrinsic fluorescence quenching, modified Stern–Volmer binding parameters; conditions: 5 µM Tau, buffer B pH 6.8, mean ± SD; for Kd: read-out: Equilibrium Binding Constants to Tau, KD
T1 construct: The full-length human Tau (hTau40) was expressed in a transformed E. coli BL21 (DE3) strain; made in house; host or cells: E. coli BL21 (DE3)
T1 sequence (P10636 1-441 isoform P10636-8): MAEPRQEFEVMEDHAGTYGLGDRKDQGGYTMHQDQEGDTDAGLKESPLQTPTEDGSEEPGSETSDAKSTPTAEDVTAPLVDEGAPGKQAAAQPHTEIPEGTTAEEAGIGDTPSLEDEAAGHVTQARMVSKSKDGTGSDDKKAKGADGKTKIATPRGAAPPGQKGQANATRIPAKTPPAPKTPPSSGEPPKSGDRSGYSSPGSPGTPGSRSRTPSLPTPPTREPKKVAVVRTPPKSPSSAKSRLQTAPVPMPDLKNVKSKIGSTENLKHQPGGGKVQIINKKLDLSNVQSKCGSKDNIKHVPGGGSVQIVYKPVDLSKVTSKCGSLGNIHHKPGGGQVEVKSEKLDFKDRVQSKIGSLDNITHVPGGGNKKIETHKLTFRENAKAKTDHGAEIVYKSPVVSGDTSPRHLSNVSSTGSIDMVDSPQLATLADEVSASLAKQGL
Protocol: Fluorescence measurements were performed with a Horiba Jobin Yvon FluoroMax-3 spectrofluorometer. […] For experiments, the excitation wavelength was fixed at 275 nm, and the emission spectra were recorded between 280 nm and 500 nm at room temperature. The inner filter effects were corrected according to Lakowicz as follows:F = Fobs × exp{(Aem + Aex)/2}(2) where Fobs and F are the observed and corrected fluorescence values at the emission wavelength of 303 nm. Aex and Aem are the absorptions at the excitation and emission wavelengths, respectively, calculated with A = ε.l.C, in which ε is the extinction coefficient of Tau, l is the path length of cuvette, and C is Tau concentration.
The total fluorescence in the absence of quencher (F0) is given by:F0 = F0a + F0b(4) where 0 refers to the fluorescence intensity in the absence of quencher.
In the presence of quencher, we defined fa as the fraction of the initial fluorescence of Tau accessible to compounds:fa = F0a/(F0a + F0b)(5)
Therefore, the intensity of the accessible fraction (fa) is decreased according to the Stern–Volmer equation, whereas the buried fraction is not quenched, as given by:F = {F0a/(1 + K.[Q])} + F0b(6)
Then, subtraction of Equations (6) and (4) yields:ΔF = F0 − F = F0a × {K.[Q]/(1 + K.[Q])}(7)
At last, inversion of Equation (7) followed by division into Equation (4) yields:F0/ΔF = {1/(fa.K.[Q])} + 1/fa(8)
We applied this modified form of the Stern–Volmer equation to graphically determine the values of fa and K. For our experiments, we plotted F0/ΔF against 1/[Q], then we determined the fa value at the point of intersection with the y-axis, while the slope represented (faK)^−1.

U87 glioblastoma cells = test: MTT cell viability assay, U87; assay type: cell-based, human; conditions: Homo sapiens; U87, 72 h, MTT; mean ± SEM; read-out: IC50 (metabolic activity)
Protocol: as §1

U87 shTau cells = test: MTT cell viability assay, U87 shTau (Tau-depleted); assay type: cell-based; conditions: Homo sapiens, 72 h, mean ± SEM, read-out: IC50 (metabolic activity)
Protocol: as §2, §1

[2] = target: T2, full-length human Tau (hTau40) (Homo sapiens, UniProt P10636); test: Tau oligomerization inhibition assay (heparin-induced, thioflavin S fluorescence); assay type: biochemical; conditions: 2 µM Tau, heparin-induced, ThS; buffer A pH 6.9; 25 °C per table footnote (37 °C in method); mean ± SD; read-out: Inhibition of Aggregation IC50
T2 construct: The full-length human Tau (hTau40) was expressed in a transformed E. coli BL21 (DE3) strain; made in house; host or cells: E. coli BL21 (DE3)
T2 sequence (P10636 1-441 isoform P10636-8): as above
Protocol: Tau oligomerization inhibition assay was performed at 37 °C in 96-well plates by monitoring thioflavin-S fluorescence at 520 nm after excitation at 440 nm using a microplate reader (POLARstar Omega system, BMG Labtech, Paris, France). The Tau oligomerization process was induced by heparin. […] The plates were shaken at 200 rpm for 10 s before each measurement. The real value of fluorescence at the plateau was determined using SciDAVis v1.23 software. Data were fitted to the SciDAVis built-in ExpGrowth equation by means of nonlinear least-squares regression analysis. Y = Y0 + A × exp(x/t)(1)
The unscaled Levenberg–Marquardt algorithm was used, and initial values were given to Y0, A, and t. The final Y0 value of the model corresponds to the plateau value. The plateau values were then used to calculate the Tau oligomerization inhibition percentage. The IC50 for each compound was calculated from the scatter plot of Tau oligomerization inhibition (in percentage) as a function of log10 of compound concentration. The IC50 value (in µM) thus corresponds to ten raised to the power of […].

U138 glioblastoma cells = test: MTT cell viability assay, U138; assay type: cell-based; conditions: Homo sapiens, U138, 72 h, mean ± SEM, read-out: IC50 (metabolic activity)
Protocol: as §1

[3] = test system: Caco-2 colon adenocarcinoma cells; test: MTT cell viability assay, Caco-2; assay type: cell-based; conditions: Homo sapiens, Caco-2 (not expressing Tau), 72 h, mean ± SEM, read-out: IC50 (metabolic activity)
Protocol: as §1

[4] = test system: SK-N-SH neuroblastoma cells; test: MTT cell viability assay, SK-N-SH; assay type: cell-based; conditions: Homo sapiens, 72 h, mean ± SEM, read-out: IC50 (metabolic activity)
Protocol: as §1

Row | Compound | IC50 (U251 glioblastoma cells) | IC50 (U87 shCTRL cells) | IC50 (T98G glioblastoma cells) | Equilibrium Binding Constants to Tau, fA (Tyr accessible fraction) [1] | Kd [1] | IC50 (U87 glioblastoma cells) | IC50 (U87 shTau cells) | IC50 [2] | IC50 (U138 glioblastoma cells) | IC50 [3] | IC50 [4]
1 | Nc1nc2ccc3nc(-c4cccc(Oc5ccccc5)c4)[nH]c(=O)c3c2s1 [Compound 16] | > 100 µM | > 100 µM | > 100 µM | 0.20 ± 0.03 | 5 ± 2.5 µM | > 100 µM | > 100 µM | 10.8 ± 2.2 µM | > 100 µM | – | –
2 | COc1c(-c2ccc(F)cc2)oc2ccc3nc(N)sc3c2c1=O [Compound 15] | 1.9 ± 0.2 µM | – | 11.3 ± 4.1 µM | 0.23 ± 0.03 | 4.1 ± 1 µM | 8.8 ± 3.3 µM | – | 6.5 ± 0.1 µM | 4.1 ± 1.6 µM | – | –
3 | Nc1nc2ccc3oc(-c4ccccc4)cc(=O)c3c2s1 [Compound 3] | > 100 µM | > 100 µM | > 100 µM | – | – | > 100 µM | > 100 µM | > 100 µM | > 100 µM | > 100 µM | > 100 µM
4 | Nc1nc2ccc3oc(-c4ccc(F)cc4)cc(=O)c3c2s1 [Compound 8] | 3.6 ± 1.1 µM | – | > 100 µM | – | – | > 100 µM | – | 15 ± 1.2 µM | 10.2 ± 5 µM | – | –
5 | CCOC(=O)c1ccc(-c2cc(=O)c3c(ccc4nc(N)sc43)o2)cc1 [Compound 4] | > 100 µM | > 100 µM | > 100 µM | 0.12 ± 0.01 | 2.4 ± 0.8 µM | > 100 µM | > 100 µM | 9.7 ± 0.2 µM | > 100 µM | > 100 µM | > 100 µM
6 | Nc1nc2ccc3nc(-c4ccc(Oc5ccccc5)cc4)[nH]c(=O)c3c2s1 [Compound 17] | > 100 µM | > 100 µM | > 100 µM | 0.14 ± 0.05 | 3.5 ± 1 µM | 5.1 ± 0.8 µM | > 100 µM | > 100 µM | > 100 µM | > 100 µM | > 100 µM
7 | Nc1nc2ccc3oc(-c4cccc(F)c4)cc(=O)c3c2s1 [Compound 7] | > 100 µM | – | > 100 µM | 0.21 ± 0.02 | 5.9 ± 1.6 µM | > 100 µM | – | 17 ± 2.9 µM | > 100 µM | – | –
8 | Nc1nc2ccc3oc(-c4cccc(F)c4)c(O)c(=O)c3c2s1 [Compound 10] | 1 ± 0.4 µM | 1.2 ± 0.4 µM | 1.5 ± 0.7 µM | – | 6.3 ± 1.2 µM | 2.6 ± 1.5 µM | 1.4 ± 0.6 µM | 9.9 ± 1.1 µM | 0.9 ± 0.4 µM | – | –
9 | Nc1nc2ccc3oc(-c4ccc(F)cc4)c(O)c(=O)c3c2s1 [Compound 11] | 1.9 ± 0.2 µM | 0.3 ± 0.2 µM | 3.5 ± 1 µM | 0.16 ± 0.01 | 5.2 ± 1.8 µM | 5.1 ± 1.8 µM | 0.4 ± 0.4 µM | > 100 µM | 5 ± 1.1 µM | – | –
10 | Nc1nc2ccc3oc(-c4ccccc4F)cc(=O)c3c2s1 [Compound 6] | 1.3 ± 0.4 µM | – | 2.9 ± 0.7 µM | – | – | 2.6 ± 1.3 µM | – | 9 ± 0.5 µM | 1 ± 0.4 µM | – | –
11 | COc1c(-c2ccccc2F)oc2ccc3nc(N)sc3c2c1=O [Compound 13] | 1.7 ± 0.1 µM | – | 9.2 ± 1.2 µM | 0.21 ± 0.02 | 5.4 ± 2.5 µM | 7.9 ± 3.4 µM | – | 9 ± 0.6 µM | 1.5 ± 0.3 µM | – | –
12 | Nc1nc2ccc3oc(-c4ccccc4)c(O)c(=O)c3c2s1 [Compound 12] | – | 0.6 ± 0.1 µM | 1.7 ± 0.9 µM | 0.19 ± 0.05 | 4.7 ± 1.3 µM | 4.1 ± 3.4 µM | 0.5 ± 0.3 µM | 12.4 ± 1.2 µM | – | – | –
